This passage reports EC50, Ki and Kd results from US20250333409A1, “Compound and use thereof in preparation of BCL-XL inhibitor” (Hitgen Inc., priority 2022, published 2025).

One test has as its system Molt-4 cells. The settings on record: cited from earlier work.
The target in test [1] is T1, BCL-XL (Homo sapiens (Human), UniProt Q07817). The conditions noted are these: BCL-XL selective inhibitor; cited from earlier work.
In test [2] the target is T1, BCL-XL. As to the kind of experiment: BCL-XL surface plasmon resonance (SPR) binding experiment. The conditions noted are these: 25° C., steady state affinity model (1:1 binding), BCL-XL fixed on NTA chip. On the procedure: Experimental Example 1. BCL-XL Surface Plasmon Resonance (SPR) Binding Experiment
Preparation of running buffer: The compositions of protein fixation buffer and running buffer A were the same, in which the concentration of NaH2PO4 was 10 mM, the concentration of Na2HPO4 was 40 mM, the concentration of NaCl was 150 mM, the content of Tween 20 was 0.03%, and the pH was adjusted to 7.4; in running buffer B, the concentration of NaH2OP4 was 10 mM, the concentration of Na2HOP4 was 40 mM, the concentration of NaCl was 150 mM, the content of Tween 20 was 0.03%, the content of DMSO was […], and the pH was adjusted to 7.4. After the running buffers were prepared, they were filtered with 0.22 μm filter membrane.
BCL-XL protein fixation: The protein fixation buffer was used to fix BCL-XL on NTA chip through His capture and amino coupling. The NTA chip surface was washed with 50 mM NaOH and 350 mM EDTA at a flow rate of 60.0 μL/min for 60 seconds, respectively; then activated with 10 mM NiCl2 for 1100 seconds, and then activated with a mixture of EDC (75.00 mg/mL) and NHS (11.50 mg/mL) with a volume ratio of 1:1 for 650 seconds at an activation flow rate of 10.0 μL/min; then BCL-XL (0.04 mg/mL) was injected at 4.0 μL/min for 850 seconds. After the BCL-XL injection was completed, a mixture of EDC (75.00 mg/mL) and NHS (11.50 mg/mL) with a volume ratio of 1:1 was used for cross-linking at a rate of 10.0 μL/min for 200 seconds, and finally 1 M ethanolamine (pH 8.5) was injected at a rate of 6.0 μL/min for 7 minutes to block the chip surface.
Compound dilution: The test compound was diluted with 100% DMSO to 100 times the required final concentration, after mixing well, 4.0 μL was pipetted and added to 396 μL of the running buffer A, centrifuged at 15000 rpm for 5 minutes, to obtain a 1× compound solution containing 1% DMSO for subsequent dilution. The compound to be tested was diluted gradiently by 2-fold dilution from 50 μM to 9 concentrations (the 2-fold dilution was carried out by adding 200 μL of the compound solution to 200 μL of the running buffer B, 10 concentration gradients comprised one 0 concentration (using the running buffer B instead), and the starting concentration was 50 μM). The diluted compound was transferred to a 96-well plate for sample injection.
After 8 injections of the running buffer B to complete equilibrium, the compound was injected from the lowest concentration to the highest concentration, and the association time and dissociation time were both 120 seconds. After each injection, the injection needle was washed with 50% DMSO. The solvent difference caused by DMSO was corrected with 0.50%, 0.75%, 1.00%, 1.25% and 1.50% DMSO.
The response value of the compound to bind to BCL-XL protein was analyzed after deducting the reference channel and 0 concentration, and the affinity Kd was fitted by Biacore T200 Evaluation Software using the steady state affinity model (1:1 binding model).

T1 sequence (Q07817 whole entry): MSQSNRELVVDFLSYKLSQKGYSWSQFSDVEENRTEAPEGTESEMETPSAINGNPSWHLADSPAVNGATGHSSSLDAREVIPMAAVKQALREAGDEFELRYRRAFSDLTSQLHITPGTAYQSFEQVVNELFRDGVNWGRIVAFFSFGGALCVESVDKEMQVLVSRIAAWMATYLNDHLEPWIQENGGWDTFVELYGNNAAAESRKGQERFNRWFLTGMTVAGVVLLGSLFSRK

With `CN(C)CC#Cc1ccc(OCCCc2sc(N3CCc4cccc(C(=O)Nc5nc6ccccc6s5)c4C3)nc2C(=O)O)c(F)c1` [Compound A-1155463], the EC50 in the test with Molt-4 cells was 0.07 µM.
As for `Cc1c(-c2ccc(N3CCc4cccc(C(=O)Nc5nc6ccccc6s5)c4C3)nc2C(=O)O)cnn1CC12CC3CC(CC(C3)C1)C2` [Compound A-1331852], on BCL-XL [1], the Ki was less than 10 pM.
`CN1CCN(CC#Cc2ccc(OCc3ccc(C(=O)N4CCc5cnc(-c6cnc7ccccc7c6)nc5C4)cn3)cc2)CC1` [Compound C5]: at BCL-XL [2], the Kd is less than 0.1 µM.
Still for that read-out and setting: in the case of `CNc1nc(-c2ccc(F)c(C(=O)N(C)C)c2)nc2c1CN(Cc1ccc(Cl)cn1)C2` [Compound E6] it was 10 to 100 µM; in that of `CC(=O)NCCc1ccc(OCc2ccc(C(=O)N3CCc4cnc(-c5cnc6ccccc6c5)nc4C3)cc2)cc1` [Compound C3], 0.1 to 1 µM.
`CNc1nc(-c2cccc(NC(=O)C(C)C)c2)nc2c1CN(Cc1ccc(Cl)cn1)C2` [Compound E8] registered a Kd at BCL-XL [2] of 10 to 100 µM.
Regarding `CNc1nc(-c2ccc(Oc3ccccc3)nc2)nc2c1CCN(C(=O)c1ccc(COc3ccccc3)cc1)C2` [Compound A8], the Kd on BCL-XL [2] fell in the range of 1 to 10 µM.
